In brackets after ≈: the same amount, converted by molar mass. Counter-ions that a name gives are not always drawn.
Assays:
Mouse oral toxicity = conditions: in vivo
Description: Mice were each treated orally with one of the compounds of general formula I, and they were observed during the next 3 days.
The LD50 figures obtained (doses lethal to 50% of mice treated) are shown in Table II, expressed in mg/kg animal body weight. None of the mice died during the experiment even at doses of 1000 mg/kg animal body weight.

[1] = test system: Staphylococcus aureus Smith; test: Mouse treated orally, Staphylococcus aureus Smith infection (Test 1); conditions: 168 h, oral, dosed 1, 4, 24, 30 and 48 hours after infection, observed seven days, test compound, read-out: In vivo CD50 (oral)
Description: Mice were injected intra-peritoneally with Staphylococcus aureus Smith suspended in mucin (0.5 ml). This infection represented approximately 100 times the minimum dose calculated to kill 100% of mice. The mice were each treated orally with 16, 31, 62.5, 125 or 250 mg/kg animal body weight doses of a compound of general formula I. Each mouse was dosed 1, 4, 24, 30 and 48 hours after infection, with the selected dose.
(§1) The term "CD50" means the dose calculated to cure 50% of the mice treated.

[2] = test system: Staphylococcus aureus Smith; test: Mouse treated subcutaneously, Staphylococcus aureus Smith infection (Test 2); type: in vivo; conditions: sc, 168 h, read-out: CD50 (subcutaneous)
Description: as §1
Mice were infected intra-peritoneally with Staphylococcus aureus Smith [approximately 100 times the minimum dose lethal to 100% of mice infected] suspended in mucin (0.5 ml).
The results obtained from a compound of general formula I were compared with the results obtained from spiramycin I used as a standard compound.

[3] = test system: Staphylococcus aureus (Oxford); test: In vitro minimum inhibitory concentration, S. aureus (Oxford) (Test 3); type: cell-based; conditions: tryptone soya broth, approximately 10^5 organisms per tube, 37° C.; for MIC: Staphylococcus aureus
Description: (§2) For each test compound, a range of concentrations in tryptone soya broth was prepared. Each test-tube containing a different concentration of the test compound within the range was inoculated with the test organism selected from Staphylococcus aureus (Oxford) or Escherichia coli B (Ennis) (approximately 10^5 organisms per tube) and after incubation at 37° C., the lowest concentration of test compound within the range required to prevent the growth of the test organism was recorded as the minimum inhibitory concentration for that compound and that organism.

[4] = test system: Escherichia coli B (Ennis); test: In vitro minimum inhibitory concentration, E. coli B (Ennis) (Test 3); type: cell-based; conditions: tryptone soya broth, approximately 10^5 organisms per tube, 37° C.; for MIC: Escherichia coli
Description: as §2

Molecule: CCOC(=O)CCC(=O)OC1C(OC2C(CC=O)CC(C)C(OC3CCC(N(C)C)C(C)O3)/C=C/C=C/CC(C)OC(=O)CC(O)C2OC)OC(C)C(OC2CC(C)(O)C(O)C(C)O2)C1N(C)C (stereo not drawn) [A, 2'-ethyl succinate of spiramycin I]
- LD50 at 72 h (Mouse oral toxicity): > 1000 mg/kg
- ED50 [1]: 88 mg/kg
- ED50 ([2]; mouse, subcutaneous, 1, 4, 24, 30 and 48 hours after infection, observed seven days): 17.5 mg/kg
- MIC [3]: 1.25 µg/mL
- MIC [4]: 62 µg/mL

Molecule: CCOC(=O)CCCC(=O)OC1C(OC2C(CC=O)CC(C)C(OC3CCC(N(C)C)C(C)O3)/C=C/C=C/CC(C)OC(=O)CC(O)C2OC)OC(C)C(OC2CC(C)(O)C(O)C(C)O2)C1N(C)C (stereo not drawn) [B, 2'-ethyl glutarate of spiramycin I]
- LD50 at 72 h (Mouse oral toxicity): > 1000 mg/kg
- ED50 [1]: 135 mg/kg
- MIC [3]: 1.25 µg/mL (≈ 1.27 µM)
- MIC [4]: 62 µg/mL (≈ 62.9 µM)

Molecule: COC(=O)CCC(=O)OC1C(OC2C(CC=O)CC(C)C(OC3CCC(N(C)C)C(C)O3)/C=C/C=C/CC(C)OC(=O)CC(O)C2OC)OC(C)C(OC2CC(C)(O)C(O)C(C)O2)C1N(C)C (stereo not drawn) [C, 2'-methyl succinate of spiramycin I]
- ED50 [1]: 62 mg/kg
- MIC [3]: 2.5 µg/mL
- MIC [4]: 250 µg/mL

Molecule: COC(=O)CC(C)C(=O)OC1C(OC2C(CC=O)CC(C)C(OC3CCC(N(C)C)C(C)O3)/C=C/C=C/CC(C)OC(=O)CC(O)C2OC)OC(C)C(OC2CC(C)(O)C(O)C(C)O2)C1N(C)C (stereo not drawn) [Compound L, 2'-methyl (RS)-(3-methyl)succinate of spiramycin I]
- ED50 [1]: 58 mg/kg
- MIC [3]: 2.5 µg/mL (≈ 2.57 µM)
- MIC [4]: 250 µg/mL (≈ 257 µM)

Molecule: CCCOC(=O)CCC(=O)OC1C(OC2C(CC=O)CC(C)C(OC3CCC(N(C)C)C(C)O3)/C=C/C=C/CC(C)OC(=O)CC(O)C2OC)OC(C)C(OC2CC(C)(O)C(O)C(C)O2)C1N(C)C (stereo not drawn) [D, 2'-propyl succinate of spiramycin I]
- ED50 [1]: 90 mg/kg
- MIC [3]: 2.5 µg/mL
- MIC [4]: 250 µg/mL

Molecule: COC(=O)CCCC(=O)OC1C(OC2C(CC=O)CC(C)C(OC3CCC(N(C)C)C(C)O3)/C=C/C=C/CC(C)OC(=O)CC(O)C2OC)OC(C)C(OC2CC(C)(O)C(O)C(C)O2)C1N(C)C (stereo not drawn) [E, 2'-methyl glutarate of spiramycin I]
- ED50 [1]: 125 mg/kg
- MIC [3]: 2.5 µg/mL (≈ 2.57 µM)
- MIC [4]: 125 µg/mL (≈ 129 µM)

Molecule: COC(=O)/C=C/C(=O)OC1C(OC2C(CC=O)CC(C)C(OC3CCC(N(C)C)C(C)O3)/C=C/C=C/CC(C)OC(=O)CC(O)C2OC)OC(C)C(OC2CC(C)(O)C(O)C(C)O2)C1N(C)C (stereo not drawn) [F, 2'-methyl fumarate of spiramycin I]
- ED50 [1]: 125 mg/kg
- MIC [3]: 2.5 µg/mL
- MIC [4]: 250 µg/mL

Molecule: COC1C(O)CC(=O)OC(C)C/C=C/C=C/C(OC2CCC(N(C)C)C(C)O2)C(C)CC(CC=O)C1OC1OC(C)C(OC2CC(C)(O)C(O)C(C)O2)C(N(C)C)C1OC(=O)CCC(=O)SC (stereo not drawn) [G, 2'-S-methyl thiosuccinate of spiramycin I]
- ED50 [1]: 114 mg/kg
- MIC [3]: 2.5 µg/mL (≈ 2.57 µM)
- MIC [4]: 500 µg/mL (≈ 514 µM)

Molecule: COC1C(O)CC(=O)OC(C)C/C=C/C=C/C(OC2CCC(N(C)C)C(C)O2)C(C)CC(CC=O)C1OC1OC(C)C(OC2CC(C)(O)C(O)C(C)O2)C(N(C)C)C1OC(=O)CCC(=O)OC1CCCCC1 (stereo not drawn) [H, 2'-cyclohexyl succinate of spiramycin I]
- ED50 [1]: 67 mg/kg
- MIC [3]: 2.5 µg/mL
- MIC [4]: 250 µg/mL

Molecule: CCOC(=O)CC(=O)OC1C(OC2C(CC=O)CC(C)C(OC3CCC(N(C)C)C(C)O3)/C=C/C=C/CC(C)OC(=O)CC(O)C2OC)OC(C)C(OC2CC(C)(O)C(O)C(C)O2)C1N(C)C (stereo not drawn) [J, 2'-ethyl malonate of spiramycin I]
- ED50 [1]: 120 mg/kg
- MIC [3]: 5 µg/mL (≈ 5.22 µM)
- MIC [4]: 250 µg/mL (≈ 261 µM)

Molecule: COC1C(O)CC(=O)OC(C)C/C=C/C=C/C(OC2CCC(N(C)C)C(C)O2)C(C)CC(CC=O)C1OC1OC(C)C(OC2CC(C)(O)C(O)C(C)O2)C(N(C)C)C1OC(=O)CCC(=O)Oc1ccccc1 (stereo not drawn) [K, 2'-phenyl succinate of spiramycin I]
- ED50 [1]: 76 mg/kg
- MIC [3]: 2.5 µg/mL
- MIC [4]: 250 µg/mL

Molecule: COC1C(O)CC(=O)OC(C)C/C=C/C=C/C(OC2CCC(N(C)C)C(C)O2)C(C)CC(CC=O)C1OC1OC(C)C(OC2CC(C)(O)C(O)C(C)O2)C(N(C)C)C1OC(=O)CCC(=O)OCCc1ccccc1 (stereo not drawn) [M, 2'-(2-phenylethyl) succinate of spiramycin I]
- ED50 [1]: 64 mg/kg
- MIC [3]: 2.5 µg/mL
- MIC [4]: 250 µg/mL

Molecule: COC1C(O)CC(=O)OC(C)C/C=C/C=C/C(OC2CCC(N(C)C)C(C)O2)C(C)CC(CC=O)C1OC1OC(C)C(OC2CC(C)(O)C(O)C(C)O2)C(N(C)C)C1OC(=O)CCC(=O)OC(C)(C)C (stereo not drawn) [N, 2'-tertiary-butyl succinate of spiramycin I]
- ED50 [1]: 130 mg/kg
- MIC [3]: 2.5 µg/mL
- MIC [4]: 125 µg/mL

Molecule: COC1C(O)CC(=O)OC(C)C/C=C/C=C/C(OC2CCC(N(C)C)C(C)O2)C(C)CC(CC=O)C1OC1OC(C)C(OC2CC(C)(O)C(O)C(C)O2)C(N(C)C)C1OC(=O)CCC(=O)OC(C)C (stereo not drawn) [O, 2'-isopropyl succinate of spiramycin I]
- ED50 [1]: 96 mg/kg
- MIC [3]: 1.25 µg/mL
- MIC [4]: 125 µg/mL

Molecule: COC1C(O)CC(=O)OC(C)C/C=C/C=C/C(OC2CCC(N(C)C)C(C)O2)C(C)CC(CC=O)C1OC1OC(C)C(OC2CC(C)(O)C(O)C(C)O2)C(N(C)C)C1O (stereo not drawn) [Spiramycin I, spiramycin I, reference compound]
- ED50 [2]: 5.8 mg/kg

Molecule: Spiramycin [reference compound]
- In vitro minimum inhibitory concentration, S. aureus (Oxford) [3]: 0.62 to 2.5 µg/mL
- In vitro minimum inhibitory concentration, Escherichia coli B (Ennis) [4]: 62 to 250 µg/mL
